Source: US9034859B2, “Sulfated oxysterol and oxysterol sulfation by hydroxysterol sulfotransferase promote lipid homeostasis and liver proliferation” (Virginia Commonwealth University, priority 2011, dated 2015)

What was measured:
[1] = Serum parameters after acute treatment of HFD- or HCD-fed mice (NAFLD model); format: in vivo, C57BL/6J female mice; conditions: 25 mg/kg i.p. twice, fasted overnight, mean ± SD, n=15-17
Method: (§1) Animal studies were approved by Institutional Animal Care and Use Committee of McGuire Veterans Affairs Medical Center and were conducted in accordance with the Declaration of Helsinki, the Guide for the Care and Use of Laboratory Animals, and all applicable regulations. To examine the effect of 25HC3S on diet-induced lipid accumulation in sera and liver, 8-week-old female C57BL/6J mice (Charles River, Wilmington, Mass.) were randomly assigned to three groups: the first control group was fed a chow diet; the high fat diet (HFD) group was fed a HFD (Harlan Teklad, Madison, Wis.) containing 42% kcal from fat, 43% kcal from carbohydrate, 15% kcal from protein and 0.2% cholesterol; and the high cholesterol diet (HCD) group was fed a 2% cholesterol diet with 18% kcal from fat, 58% kcal from carbohydrate and 24% kcal from protein for 10 weeks, respectively. All mice were housed under identical conditions in an aseptic facility and given free access to water and food. At the end of each period, the mice were intraperitoneally injected with vehicle solution (ethanol/PBS; Vehicle), 25HC (25 mg/kg), or 25HC3S (25 mg/kg) for 2 times and fasted over night for acute treatment (n=15-17 for each group) or once every three days for 6 weeks (n=16 for each group) and fasted 5 hrs for long-term treatment; and blood samples were collected. Serum triglyceride, total cholesterol, high density lipoprotein-cholesterol, glucose, alkaline phosphatase (ALK), alanine aminotransferase (ALT), and aspartate aminotransferase (AST) were measured using standard enzymatic techniques in the clinical laboratory at McGuire Veterans Affairs Medical Center. Lipoprotein profiles in sera were analyzed by HPLC as following described.

[2] = system: lipogenic gene expression; assay: Relative hepatic mRNA expression by real-time RT-PCR, acute treatment; format: in vivo, C57BL/6J female mice; conditions: liver; for ABCA1 relative hepatic mRNA / ABCG1 relative hepatic mRNA / ACC1 relative hepatic mRNA / ACOX1 relative hepatic mRNA / CD36 relative hepatic mRNA / CPT1 relative hepatic mRNA / CYP7α relative hepatic mRNA / CYP27α relative hepatic mRNA / FABP1 relative hepatic mRNA / FAS relative hepatic mRNA / FATP relative hepatic mRNA / G6Pase relative hepatic mRNA / GCK relative hepatic mRNA / GPAM relative hepatic mRNA / LDLR relative hepatic mRNA / LXRα relative hepatic mRNA / MCAD relative hepatic mRNA / MTTP relative hepatic mRNA / PCK1 relative hepatic mRNA / PLTP relative hepatic mRNA / PPARα relative hepatic mRNA / Pkir relative hepatic mRNA / SCD relative hepatic mRNA / SRB1 relative hepatic mRNA / SREBP-1c relative hepatic mRNA / SULT2B1b relative hepatic mRNA: acute treatment (twice), mean ± SD, n=5-6
Method: as §1
Total RNA was isolated with SV Total RNA Isolation Kit (Promega, Madison, Wis.), which included DNase treatment. Total RNA, 2 μg, was used for the first-strand cDNA synthesis as recommended by the manufacturer (Invitrogen, Carlsbad, Calif.). Real-time RT-PCR was performed using SYBR Green as indicator on ABI 7500 Fast Real-Time PCR System (Applied Biosystems, Foster City, Calif.). All primer/probe sets for real-time PCR were TaqMan gene expression assays (Applied Biosystems, Foster City, Calif.). Amplifications of β-actin and GAPDH were used as internal controls. Relative messenger RNA (mRNA) expression was quantified with the comparative cycle threshold (Ct) method and was expressed as 2^−ΔΔCt. Suitable primers were utilized.

SREBP-1c pathway = assay: Western blot of cytoplasmic and nuclear liver extracts, acute treatment; format: in vivo, C57BL/6J female mice; conditions: HFD mice
Method: Animal studies were approved by Institutional Animal Care and Use Committee of McGuire Veterans Affairs Medical Center and were conducted in accordance with the Declaration of Helsinki, the Guide for the Care and Use of Laboratory Animals, and all applicable regulations. […] All mice were housed under identical conditions in an aseptic facility and given free access to water and food. At the end of each period, the mice were intraperitoneally injected with vehicle solution (ethanol/PBS; […] Serum triglyceride, total cholesterol, high density lipoprotein-cholesterol, glucose, alkaline phosphatase (ALK), alanine aminotransferase (ALT), and aspartate aminotransferase (AST) were measured using standard enzymatic techniques in the clinical laboratory at McGuire Veterans Affairs Medical Center. Lipoprotein profiles in sera were analyzed by HPLC as following described. Liver tissues were homogenized, and cytoplasmic and nuclear fractions were extracted with NE-PER Nuclear and Cytoplasmic Extraction Kit (Fisher Scientific, Pittsburgh, Pa.). […] Each positive band was quantified by Advanced Image Data Analyzer (Aida, Straubenhardt, Germany).

[3] = HPLC analysis of serum lipoprotein profiles; format: in vivo, C57BL/6J female mice; conditions: HFD mice, acute treatment
Method: Animal studies were approved by Institutional Animal Care and Use Committee of McGuire Veterans Affairs Medical Center and were conducted in accordance with the Declaration of Helsinki, the Guide for the Care and Use of Laboratory Animals, and all applicable regulations. […] All mice were housed under identical conditions in an aseptic facility and given free access to water and food. At the end of each period, the mice were intraperitoneally injected with vehicle solution (ethanol/PBS; […] Serum triglyceride, total cholesterol, high density lipoprotein-cholesterol, glucose, alkaline phosphatase (ALK), alanine aminotransferase (ALT), and aspartate aminotransferase (AST) were measured using standard enzymatic techniques in the clinical laboratory at McGuire Veterans Affairs Medical Center. Lipoprotein profiles in sera were analyzed by HPLC as following described. […] Fractions were collected for 1.2 min each. The cholesterol assay was performed using 180 μl of each fraction plus 20 μl of a 10× solution of Wako Total Cholesterol E Reagent (Wako Chemicals USA, Richmond, Va.) in a 96 well plate, incubated at 37° C. and read at 595 nm.

LXR signaling pathway = assay: Western blot of LXR and its target genes and PCNA in mouse liver (Example 3); format: in vivo, C57BL/6 mice
Method: Cayman Chemical, Ann Arbor, Mich.); […] […] Metabolism. (Accepted)]. […] Cell lysates were prepared from frozen mouse liver tissues. Total proteins, 100 μg, were separated by 10% SDS-PAGE, and transferred to PVDF membrane (Millipore, Eschbom, Germany). […] Louis, Mo.) was used as a loading control. The immunoreactive bands were detected by Fujifilm Medical System (Fujifilm, Stamford, Conn.) and quantified by Advanced Image Data Analyzer (Aida Inc., Straubenhardt, Germany).

[4] = HFD mice, acute treatment, compared to vehicle

CC(CCCC(C)(C)O)C1CCC2C3CC=C4CC(OS(=O)(=O)O)CCC4(C)C3CCC12C (stereo not shown) [25HC3S, 25-hydroxycholesterol-3-sulfate]
ALK ([1]; HCD 10 weeks): 89 ± 19 IU/L
ALT ([1]; HCD 10 weeks): 44 ± 5 IU/L
AST ([1]; HCD 10 weeks): 227 ± 48 IU/L
Cholesterol ([1]; HCD 10 weeks): 86 ± 7 mg/dL
Glucose ([1]; HCD 10 weeks): 249 ± 39 mg/dL
HDL-C ([1]; HCD 10 weeks): 77 ± 7 mg/dL
Triglycerides ([1]; HCD 10 weeks): 43 ± 8 mg/dL
ALK ([1]; HFD 10 weeks): 76 ± 21 IU/L
ALT ([1]; HFD 10 weeks): 47 ± 6 IU/L
AST ([1]; HFD 10 weeks): 222 ± 54 IU/L
Cholesterol ([1]; HFD 10 weeks): 87 ± 24 mg/dL
Glucose ([1]; HFD 10 weeks): 245 ± 50 mg/dL
HDL-C ([1]; HFD 10 weeks): 72 ± 26 mg/dL
Triglycerides ([1]; HFD 10 weeks): 34 ± 9 mg/dL
ABCA1 relative hepatic mRNA ([2]; HFD mice): 0.71 ± 0.12
ABCG1 relative hepatic mRNA ([2]; HFD mice): 1.14 ± 0.76
ACC1 relative hepatic mRNA ([2]; HFD mice): 0.56 ± 0.12
ACOX1 relative hepatic mRNA ([2]; HFD mice): 0.82 ± 0.16
CD36 relative hepatic mRNA ([2]; HFD mice): 0.93 ± 0.36
CPT1 relative hepatic mRNA ([2]; HFD mice): 1.05 ± 0.19
CYP7α relative hepatic mRNA ([2]; HFD mice): 0.60 ± 0.18
CYP27α relative hepatic mRNA ([2]; HFD mice): 1.06 ± 0.23
FABP1 relative hepatic mRNA ([2]; HFD mice): 1.14 ± 0.45
FAS relative hepatic mRNA ([2]; HFD mice): 0.33 ± 0.21
FATP relative hepatic mRNA ([2]; HFD mice): 1.05 ± 0.29
G6Pase relative hepatic mRNA ([2]; HFD mice): 1.36 ± 0.77
GCK relative hepatic mRNA ([2]; HFD mice): 1.10 ± 0.68
GPAM relative hepatic mRNA ([2]; HFD mice): 1.16 ± 0.08
LDLR relative hepatic mRNA ([2]; HFD mice): 1.07 ± 0.09
LXRα relative hepatic mRNA ([2]; HFD mice): 0.79 ± 0.10
MCAD relative hepatic mRNA ([2]; HFD mice): 1.36 ± 0.31
MTTP relative hepatic mRNA ([2]; HFD mice): 1.31 ± 0.20
PCK1 relative hepatic mRNA ([2]; HFD mice): 1.02 ± 0.25
PLTP relative hepatic mRNA ([2]; HFD mice): 0.97 ± 0.55
PPARα relative hepatic mRNA ([2]; HFD mice): 0.93 ± 0.35
Pkir relative hepatic mRNA ([2]; HFD mice): 0.61 ± 0.18
SCD relative hepatic mRNA ([2]; HFD mice): 0.93 ± 0.27
SRB1 relative hepatic mRNA ([2]; HFD mice): 1.30 ± 0.22
SREBP-1c relative hepatic mRNA ([2]; HFD mice): 0.56 ± 0.13
SULT2B1b relative hepatic mRNA ([2]; HFD mice): 1.29 ± 0.34
reduction of ACCT mRNA level [2, 4]: 45%
reduction of FAS mRNA level [2, 4]: 70%
reduction of LXRα mRNA level [2, 4]: 20%
reduction of SREBP-1c mRNA level [2, 4]: 45%
suppression of FAS protein level (SREBP-1c pathway): 40%
suppression of cytoplasmic ACC1 protein level (SREBP-1c pathway): 50%
suppression of nuclear SREBP-1c protein level (SREBP-1c pathway): 70%
LDL, VLDL, and HDL protein levels [3]: did not change
cholesterol contents in HDL fractions [3]: slightly decreased
triglyceride contents in VLDL fractions [3]: markedly decreased
decrease of ABCA1 protein level (LXR signaling pathway; 5 mg/kg, 48 h): 50%
decrease of LXRα protein level (LXR signaling pathway; 5 mg/kg, 48 h): 40%
decrease of SREBP-1c protein level (LXR signaling pathway; 5 mg/kg, 48 h): 30%
increase of PCNA protein level (LXR signaling pathway; 5 mg/kg, 48 h): 2 fold

C[C@H](CCCC(C)(C)O)[C@H]1CC[C@H]2[C@@H]3CC=C4C[C@@H](O)CC[C@]4(C)[C@H]3CC[C@]12C [25HC, 25-hydroxycholesterol]
ALK ([1]; HFD 10 weeks): 55 ± 12 IU/L
ALT ([1]; HFD 10 weeks): 56 ± 14 IU/L
AST ([1]; HFD 10 weeks): 294 ± 57 IU/L
Cholesterol ([1]; HFD 10 weeks): 144 ± 24 mg/dL
Glucose ([1]; HFD 10 weeks): 188 ± 26 mg/dL
HDL-C ([1]; HFD 10 weeks): 119 ± 21 mg/dL
Triglycerides ([1]; HFD 10 weeks): 49 ± 13 mg/dL
decrease of ACOX1 mRNA level ([2]; HFD mice, acute treatment): 55%
decrease of PPARα mRNA level ([2]; HFD mice, acute treatment): 40%
decrease of SCD mRNA level ([2]; HFD mice, acute treatment): 40%
increase of ACC1 mRNA level ([2]; HFD mice, acute treatment): 160%
increase of FAS mRNA level ([2]; HFD mice, acute treatment): 150%
increase of SREBP-1c mRNA level ([2]; HFD mice, acute treatment): 170%
increase of SULT2B1b expression ([2]; HFD mice, acute treatment): 3 fold
ABCA1 relative hepatic mRNA ([2]; HFD mice): 1.08 ± 0.24
ABCG1 relative hepatic mRNA ([2]; HFD mice): 1.38 ± 0.78
ACC1 relative hepatic mRNA ([2]; HFD mice): 1.58 ± 0.64
ACOX1 relative hepatic mRNA ([2]; HFD mice): 0.45 ± 0.17
CD36 relative hepatic mRNA ([2]; HFD mice): 0.71 ± 0.24
CPT1 relative hepatic mRNA ([2]; HFD mice): 0.94 ± 0.16
CYP7α relative hepatic mRNA ([2]; HFD mice): 0.19 ± 0.18
CYP27α relative hepatic mRNA ([2]; HFD mice): 1.00 ± 0.12
FABP1 relative hepatic mRNA ([2]; HFD mice): 0.48 ± 0.15
FAS relative hepatic mRNA ([2]; HFD mice): 1.45 ± 0.18
FATP relative hepatic mRNA ([2]; HFD mice): 0.67 ± 0.12
G6Pase relative hepatic mRNA ([2]; HFD mice): 0.25 ± 0.13
GCK relative hepatic mRNA ([2]; HFD mice): 0.57 ± 0.16
GPAM relative hepatic mRNA ([2]; HFD mice): 1.12 ± 0.27
LDLR relative hepatic mRNA ([2]; HFD mice): 1.38 ± 0.50
LXRα relative hepatic mRNA ([2]; HFD mice): 0.98 ± 0.09
MCAD relative hepatic mRNA ([2]; HFD mice): 0.75 ± 0.12
MTTP relative hepatic mRNA ([2]; HFD mice): 1.04 ± 0.14
PCK1 relative hepatic mRNA ([2]; HFD mice): 1.47 ± 0.37
PLTP relative hepatic mRNA ([2]; HFD mice): 0.81 ± 0.36
PPARα relative hepatic mRNA ([2]; HFD mice): 0.59 ± 0.09
Pkir relative hepatic mRNA ([2]; HFD mice): 0.77 ± 0.13
SCD relative hepatic mRNA ([2]; HFD mice): 0.59 ± 0.13
SRB1 relative hepatic mRNA ([2]; HFD mice): 1.52 ± 0.31
SREBP-1c relative hepatic mRNA ([2]; HFD mice): 1.69 ± 0.75
SULT2B1b relative hepatic mRNA ([2]; HFD mice): 3.33 ± 0.89
increase of IL1α expression ([2]; data not shown): 217%
increase of NFκB expression ([2]; data not shown): 168%
nuclear SREBP-1, cytoplasmic ACC1 and FAS protein levels (SREBP-1c pathway): increased
cholesterol contents in LDL and HDL fractions [3]: significantly increased
triglyceride contents in LDL fractions [3]: significantly increased
expression of ABCA1 and SREBP-1c (LXR signaling pathway; Ad-Control and 25HC co-treatment group): effectively up-regualted
